# According to patent US4294833A, “Substituted 4-hydroxy-isophthalic acid picolylamides having a pharmaceutical activity in thromboembolic disorders” (Societa Italo-Britannica, priority 1977, dated 1981):
# Test system: thrombin-induced coagulation of platelet rich plasma
# Assay: Antithrombin activity on PRP, Hartert's thromboelastograph
# Format: in vivo, New Zealand rabbits
# Conditions: Oryctolagus cuniculus, Platelet, ip, percent decrease of index ma/[r+k] vs before treatment; 20 mg/kg intraperitoneal, rabbits
# Description: Determination of the antithrombin activity
# The antithrombin activity on the PRP (platelet rich plasma) obtained following the above described method was assessed by Hartert's thromboelastograph (Hellige model). The coagulation was induced by adding to 0.25 ml of plasma 0.06 ml of a thrombin solution (Roche Topostasin® per os) at 60 units*, pH 7.4**. The antithrombin activity was assessed in terms of a percent decrease of the index (ma/[r+k]) which was calculated from the thromboelastograph diagram, wherein r is the reaction time, k is the speed of the coagulum formation and ma is the maximum spread of the tong, after an intraperitoneal treatment with a dose of 20 mg/kg of each compound under examination, referred to the same index obtained before the treatment (control).
# (§1) In tables I and II are further indicated for each compound the method of preparation; the melting point PF in °C; the platelet antiaggregant activity (AAP) expressed in terms of DI50 in mg/kg, referred to ADP and thrombin respectively; the antithrombin activity (AT) in %; the anticoagulant activity (AC) in %; the fibrinolytic activity (FL) in %; the acute toxicity (LD50) in mice, intraperitoneally, in mg/kg, as previously defined.
row,Compound,inhibition in vivo at 20 mg/kg
1,CC=COc1c(Cl)cc(C(=O)N(Cc2cccnc2)C(CC)CC)cc1C(=O)N(Cc1cccnc1)C(CC)CC [Example 50],27.6%
2,COc1c(Cl)cc(C(=O)NCc2cccnc2)cc1C(=O)NCc1cccnc1 [Example 23],22.5%
3,CC(C)=COc1ccc(C(=O)NCc2ccncc2)cc1C(=O)NCc1ccncc1 [Example 65],34.2%
4,O=C(NCc1cccnc1)c1cc(Cl)c(O)c(C(=O)NCc2cccnc2)c1 [Example 32],22.2%
5,O=C(NCc1cccnc1)c1cc(C(=O)NCc2cccnc2)c(O)c([N+](=O)[O-])c1 [Example 31],23.1%

# Test system: platelet aggregation induced by thrombin
# Assay: Platelet aggregation inhibitory activity in vivo (Born aggregometer), thrombin-induced
# Set-up: species or system New Zealand rabbits
# Conditions: Oryctolagus cuniculus, Platelet, ip, dose for 50% inhibition of thrombin-induced aggregation curve; rabbits, intraperitoneal, blood 2, 4 and 6 hours after injection; read-out: platelet antiaggregant activity (AAP), DI50, Thrombin
# Description: (§2) Determination of the platelet aggregation inhibitory activity in vivo
# (§3) The activity of the above described compounds as platelet antiaggregant was tested in vivo on rabbits, by the Born aggregometer. The inhibition of the aggregation curve induced by ADP and thrombin was assessed with different drug concentrations according to the platelet reactivity. New Zealand rabbits which had been held fasting for 12 hours with water ad libitum, were anaesthetized with Nembutal in a dose of 35 mg/kg intramuscolarly. The blood was withdrawn from the carotidal arthery, before (control) and 2, 4, and 6 hours after the intraperitoneal injection of the compounds under examination (at the dose indicated below). The blood samples were taken up in a 3.8% aqueous solution of sodium citrate in a ratio 10:1 and thereupon centrifuged at 1500 r.p.m. for 10 minutes, for obtaining a PRP (platelet rich plasma). A portion of such a plasma was thereupon centrifuged at 8000 r.p.m. for 10 minutes, for obtaining a PPP (platelet lean plasma) which was used for zeroing the measuring apparatus.
# (§4) From the results of said experiments, there was determined the dose of each product in mg/kg body weight able to induce a 50% inhibition of the aggregation curve (DI50) after treatment, referred to the curve obtained by the same control plasma before treatment.
# as §1
row,Compound,ED50
1,CC=COc1c(Cl)cc(C(=O)N(Cc2cccnc2)C(CC)CC)cc1C(=O)N(Cc1cccnc1)C(CC)CC [Example 50],33.8 mg/kg
2,COc1c(Cl)cc(C(=O)NCc2cccnc2)cc1C(=O)NCc1cccnc1 [Example 23],46.9 mg/kg
3,CC(C)=COc1ccc(C(=O)NCc2ccncc2)cc1C(=O)NCc1ccncc1 [Example 65],24.5 mg/kg
4,O=C(NCc1cccnc1)c1cc(Cl)c(O)c(C(=O)NCc2cccnc2)c1 [Example 32],33.6 mg/kg
5,O=C(NCc1cccnc1)c1cc(C(=O)NCc2cccnc2)c(O)c([N+](=O)[O-])c1 [Example 31],27 mg/kg

# Test system: not listed separately
# Assay: Acute toxicity, intraperitoneal
# Conditions: mouse, in vivo, ip, male Swiss mice, intraperitoneal, 7 days observation; preliminary, by graphic interpolation; read-out: acute toxicity (LD50 / DL50)
# Description: The acute toxicity limit was determined intraperitoneally on male Swiss mice, weighing 20±2 g, held fasting for 18 hours with water ad libitum.
# The animals were maintained under observation for 7 days of treatment, by examining the general symptomatology and noting the death sequency. The preliminary DL50 in mg/kg body weight was calculated by graphic interpolation of the results as obtained.
# as §1
row,Compound,LD50 at 168 h
1,CC=COc1c(Cl)cc(C(=O)N(Cc2cccnc2)C(CC)CC)cc1C(=O)N(Cc1cccnc1)C(CC)CC [Example 50],198 mg/kg
2,COc1c(Cl)cc(C(=O)NCc2cccnc2)cc1C(=O)NCc1cccnc1 [Example 23],425 mg/kg
3,CC(C)=COc1ccc(C(=O)NCc2ccncc2)cc1C(=O)NCc1ccncc1 [Example 65],240 mg/kg
4,O=C(NCc1cccnc1)c1cc(Cl)c(O)c(C(=O)NCc2cccnc2)c1 [Example 32],425 mg/kg
5,O=C(NCc1cccnc1)c1cc(C(=O)NCc2cccnc2)c(O)c([N+](=O)[O-])c1 [Example 31],345 mg/kg

# Test system: platelet aggregation induced by ADP
# Assay: Platelet aggregation inhibitory activity in vivo (Born aggregometer), ADP-induced
# Set-up: species or system New Zealand rabbits
# Conditions: Oryctolagus cuniculus, Platelet, ip, dose for 50% inhibition of ADP-induced aggregation curve; rabbits, intraperitoneal, blood 2, 4 and 6 hours after injection; read-out: platelet antiaggregant activity (AAP), DI50, ADP
# Description: as §2, §3, §4, §1
row,Compound,ED50
1,CC=COc1c(Cl)cc(C(=O)N(Cc2cccnc2)C(CC)CC)cc1C(=O)N(Cc1cccnc1)C(CC)CC [Example 50],52.2 mg/kg
2,COc1c(Cl)cc(C(=O)NCc2cccnc2)cc1C(=O)NCc1cccnc1 [Example 23],63.4 mg/kg
3,CC(C)=COc1ccc(C(=O)NCc2ccncc2)cc1C(=O)NCc1ccncc1 [Example 65],36.7 mg/kg
4,O=C(NCc1cccnc1)c1cc(Cl)c(O)c(C(=O)NCc2cccnc2)c1 [Example 32],50.2 mg/kg
5,O=C(NCc1cccnc1)c1cc(C(=O)NCc2cccnc2)c(O)c([N+](=O)[O-])c1 [Example 31],36.6 mg/kg

# Test system: blood coagulum
# Assay: Fibrinolytic activity, Fearnley method (lysis of blood coagulum in toto)
# Format: in vivo
# Conditions: Oryctolagus cuniculus, ip, 0.5 h, percent decrease of coagulum weight after 30 minutes at 37° C.; 25 mg/kg intraperitoneal, rabbits; read-out: fibrinolytic activity (FL)
# Description: Determination of the fibrinolytic activity
# The determination of the fibrinolytic activity was made following the Fearnley method for the lysis of the blood coagulum in toto.
# 0.2 ml of blood were withdrawn from the marginal vein of the ear of rabbits treated in the same way as the previously described tests, before and after an intraperitoneal injection of the compounds under test at a dose level of 25 mg/kg for each compound.
# The blood samples were placed in test tubes containing 1.7 ml of phosphate buffer at pH 7.4 and 0.1 ml of thrombin (Roche Topostasin ® per os) at 50 units NIH/ml, and maintained in an ice bath. The test tubes were maintained at said temperature for 30 minutes and thereupon were transferred to a temperature controlled water bath at 37° C.
# The fibrinolytic activity was determined as a percent decrease of the coagulum weight, measured after incubation for 30 minutes at 37° C.
# as §1
row,Compound,fibrinolytic activity (percent decrease of coagulum weight) at 25 mg/kg
1,CC=COc1c(Cl)cc(C(=O)N(Cc2cccnc2)C(CC)CC)cc1C(=O)N(Cc1cccnc1)C(CC)CC [Example 50],24.6%
2,COc1c(Cl)cc(C(=O)NCc2cccnc2)cc1C(=O)NCc1cccnc1 [Example 23],16.8%
3,CC(C)=COc1ccc(C(=O)NCc2ccncc2)cc1C(=O)NCc1ccncc1 [Example 65],26.5%
4,O=C(NCc1cccnc1)c1cc(Cl)c(O)c(C(=O)NCc2cccnc2)c1 [Example 32],17.3%
5,O=C(NCc1cccnc1)c1cc(C(=O)NCc2cccnc2)c(O)c([N+](=O)[O-])c1 [Example 31],20.5%

# Test system: CaCl2-induced plasma coagulation
# Assay: Anticoagulant activity on PRP, Hartert's thromboelastograph
# Format: in vivo, New Zealand rabbits
# Conditions: Oryctolagus cuniculus, ip, percent increase of total time for coagulum formation (r+k) vs before treatment; 25 mg/kg intraperitoneal, rabbits; read-out: anticoagulant activity (AC)
# Description: Determination of the anticoagulant activity
# The anticoagulant activity was also assessed on PRP of animals treated as described in the preceding methods, by using again Hartert's thromboelastograph method.
# The plasma coagulation was induced by adding to 0.25 ml PRP a 1.29% solution of CaCl2.
# The anticoagulant effect was determined as a percent increase of the total time for the coagulum formation (the index r+k can be obtained from the thromboelastograph diagram) in a plasma after treatment, referred to the same index obtained before the treatment (control). Again the dose level was 25 mg/kg for each compound under examination, intraperitoneally.
# as §1
row,Compound,change in vivo at 25 mg/kg
1,CC=COc1c(Cl)cc(C(=O)N(Cc2cccnc2)C(CC)CC)cc1C(=O)N(Cc1cccnc1)C(CC)CC [Example 50],13.8%
2,COc1c(Cl)cc(C(=O)NCc2cccnc2)cc1C(=O)NCc1cccnc1 [Example 23],12.2%
3,CC(C)=COc1ccc(C(=O)NCc2ccncc2)cc1C(=O)NCc1ccncc1 [Example 65],23.8%
4,O=C(NCc1cccnc1)c1cc(Cl)c(O)c(C(=O)NCc2cccnc2)c1 [Example 32],11.8%
5,O=C(NCc1cccnc1)c1cc(C(=O)NCc2cccnc2)c(O)c([N+](=O)[O-])c1 [Example 31],13.6%
